Experimental data: ChEMBL document CHEMBL1201862, “PubChem BioAssay data set” (2004)
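A five-concentration, 48-hour dose response in 96-well plates underlies each endpoint, interpolated linearly between surrounding concentrations. The concentration for 50% growth inhibition is given as GI50.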 The source made the active and inactive calls. Cut-off read from the data, not from the text of the source: active = GI50 up to about 1.1 µM and inactive = higher.

Legend:
Assay in all cases: growth of human tumour cells (NCI), 48 h
T47D = tested on: T47D
M19-MEL = tested on: M19-MEL
KM-20L2 = tested on: KM-20L2
DMS-114 = tested on: DMS-114
SNB-78 = tested on: SNB-78
XF498 = tested on: XF498
DMS-273 = tested on: DMS-273
LXFL 529 = tested on: LXFL 529
RXF 631 = tested on: RXF 631

Measured: GI50

O=S(=O)(/N=C(\NO)Nc1ccc(Cl)cc1)c1ccc(-c2ccccn2)s1
inactive: T47D 62.4 µM

CCN(CC)CCSc1nc(-c2c[nH]c3nc(C)ccc3c2=O)n[nH]1
inactive: T47D > 100 µM

Cc1c2cc[n+](C)cc2c(COC2OC(CO)C(O)C2O)c2c3ccccc3n(C)c12 (centres undefined)
inactive: M19-MEL 65.5 µM | KM-20L2 31.6 µM | DMS-114 46.3 µM | SNB-78 83.9 µM | XF498 50.7 µM | DMS-273 > 89.9 µM

CCC1(C)NN=c2s/c(=C/c3ccc(OC)cc3)c(=O)n2N1 (centres undefined)
inactive: KM-20L2 > 100 µM | SNB-78 > 100 µM | XF498 > 100 µM | LXFL 529 > 100 µM | DMS-273 > 100 µM

O=C1CC2(CCC(O)(c3ccccc3)C(C(=O)c3ccccc3)C2)C(=O)c2ccccc2N1 (centres undefined)
inactive: T47D > 100 µM

COc1ccc(C2c3cc4c(cc3OC(Nc3ccccc3)C2C)OCO4)cc1 (centres undefined)
inactive: T47D 36.1 µM

CNC(=O)OCc1nc(SC)n(C)c1CO
inactive: M19-MEL > 100 µM | KM-20L2 > 100 µM | DMS-114 > 100 µM | SNB-78 > 100 µM | XF498 > 100 µM | DMS-273 > 100 µM

N#C/C(=C/NC(=S)c1ccncc1)C(N)=O
inactive: T47D > 100 µM

O=C(N/N=C/c1cc(-c2ccccc2Cl)c(-c2ccccc2Cl)o1)c1ccncc1
inactive: M19-MEL > 100 µM | KM-20L2 > 100 µM | RXF 631 > 100 µM | DMS-114 87.9 µM | XF498 > 100 µM | LXFL 529 96.6 µM

CCOP(=O)(OCC)C1CC(C)OC1=O (centres undefined)
inactive: M19-MEL > 100 µM | KM-20L2 > 100 µM | RXF 631 > 100 µM | DMS-114 > 100 µM | SNB-78 > 100 µM | XF498 > 100 µM | LXFL 529 > 100 µM | DMS-273 > 100 µM

O=c1[nH]c2ccc([N+](=O)[O-])cc2nc1/C(=N/Nc1ccccc1)C(O)c1ccco1 (centres undefined)
inactive: M19-MEL 85.9 µM | KM-20L2 41.1 µM | DMS-114 18.9 µM | SNB-78 > 100 µM | XF498 > 100 µM | LXFL 529 59.8 µM | DMS-273 42.4 µM

CCc1c(C)c(C#N)c(=S)n(C2OC(COC(C)=O)C(OC(C)=O)C(OC(C)=O)C2OC(C)=O)c1-c1ccccc1 (centres undefined)
inactive: T47D > 31.6 µM

Cc1c(-c2cc3n(n2)C(c2cccs2)C(C#N)=C(c2ccccc2)N3)c(=O)n(-c2ccccc2)n1C (centres undefined)
inactive: M19-MEL > 100 µM | KM-20L2 24.9 µM | DMS-114 77.3 µM | SNB-78 > 100 µM | XF498 > 79.4 µM | DMS-273 > 91.6 µM

Nc1nncc2c1ccn2C1OC(CO)C(O)C1O (centres undefined)
inactive: M19-MEL > 100 µM | KM-20L2 > 100 µM | DMS-114 > 100 µM | SNB-78 > 100 µM | LXFL 529 > 100 µM | DMS-273 > 100 µM

Cc1nnc2n1-c1ccccc1N(Cc1ccccc1)CC2
inactive: T47D 41.2 µM

N=C(N)c1csc([C@@H]2O[C@H](CO)[C@@H](O)[C@H]2O)n1
inactive: M19-MEL > 100 µM | RXF 631 > 100 µM | SNB-78 > 100 µM | XF498 > 100 µM | LXFL 529 > 100 µM | DMS-273 > 100 µM

Cc1ccc2nc(C(C)C)c(=O)[nH]c2c1
inactive: T47D > 100 µM

COc1c(C(=O)/C(=N/Nc2ccccc2)C(C)=O)c(O)c(OC)c2occc12
inactive: T47D 19.3 µM

CN(C)CCNC(=O)c1cccc2c1Nc1ccccc1S2
inactive: M19-MEL 15.6 µM | KM-20L2 16.2 µM | DMS-114 6.76 µM | SNB-78 12.2 µM | XF498 12.6 µM | DMS-273 13.7 µM

C=CNC(=S)n1nc(-c2ccccc2NC(=O)C(F)(F)F)c(=O)n(C(=S)NC=C)c1=S
inactive: M19-MEL 31.8 µM | DMS-114 12.3 µM | SNB-78 51.1 µM | XF498 30.2 µM | LXFL 529 19.5 µM | DMS-273 26.8 µM

CC1=NN(C(=O)c2ccccc2)C(=O)C1/N=N/c1ccccc1C(=O)O (centres undefined)
inactive: M19-MEL 5.92 µM | KM-20L2 63.1 µM | DMS-114 4.08 µM | XF498 2.72 µM | DMS-273 3.05 µM

Clc1ccc(COc2ccccc2/C=N/c2c(-c3ccco3)nc3ccccn23)c(Cl)c1
inactive: T47D 24.7 µM

C/C(=N\NC(=O)c1ccncc1)c1cccc(C(F)(F)F)c1
inactive: T47D > 10 µM
